Where two headings read alike, the source gives them in different places.
Legend:
Format in all cases: physicochemical
[1] = Emulsion stability tests; conditions: for Classification of Emulsion: 2% ester, 7% myristyl propionate, 91% water
Method: Emulsion stability tests were performed on the esters (I), and for comparison on the precursor esters (Ia), to determine the extent to which each stabilized a standardized solution of water and an oil, using a common procedure consisting of homogenizing a mixture containing the test ester (2%), myristyl propionate (7%), and water (91%). While two emulsifiers are normally used to prepare a cosmetic formulation, e.g. one with a high HLB and the other with a low HLB, the test method herein using only one emulsifier, i.e. the test ester, is fully indicative of the emulsifying attributes of these esters.
The tests were performed with emulsions (500 g), prepared by combining the test ester (10.0 g), myristyl propionate (35 g), and distilled water (455 g) in a container and homogenizing the contents for one minute, via a Kika-Werk Ultra-Turrax S D-45 homogenizer. The emulsions were poured into a one pound flint jar, capped, and periodically examined over a 55 day period.

[2] = Surface tension tests (cmc, Gibbs' Free Energy of Micellation); conditions: for ΔG°cmc (Gibbs' Free Energy of Micellation): calculated from cmc by Eq. 1, T=298° K.; for cmc (critical micelle concentration): ester/water solution
Method: Surface tension tests were conducted as to the relationship between the fatty acid aliphatic chain length, i.e. number of carbon atoms, in the esters (I), and their performance as surfactants. The length of the hydrophobic chain of a molecule is considered the major contributing factor to the critical micelle concentration (cmc) value of a surfactant. This value is obtained from surface tension measurement data. The lower the cmc, the more readily the material will form micelles.
The Gibbs' Free Energy of Micellation (ΔG°cmc) and the ΔG°cmc per --CH2 -- can be determined if the cmc is known.
The ΔG°cmc is a calculated value obtained by Equation 1.
ΔG°cmc =2.303RT(log cmc-log[water]) (Eq. 1)
The ΔG°cmc per --CH2 -- value is obtained from the slope of the straight line curve formed from a plot of ΔG°cmc versus the number of carbon atoms in the lipophilic chain.
The cmc values were based on surface tension tests conducted with a tensiometer (Cenco-DuNoug Precision Model #70535, direct reading model) to determine the upward surface tension at the liquid-air surface of the test ester/water solution. The methods used to calibrate the tensiometer, calculate the "correction factor" (used to correct for the difference between the apparent and true surface tension), and collect data, were conducted as described in the manual for the instrument. Sodium lauryl sulfate (SLS) and distilled water were used as reference samples.
On completing data collection, plots of the surface tension (dynes) versus -log of the concentration (mols/liter) were prepared, using only the "corrected" surface tension value, obtained by applying the noted "correction factor" in each case. The […] was found by multiplying the "apparent" surface tension by a calculated correction factor.
The critical micelle concentration (cmc) for each sample was determined by locating the point in the curve where the surface tension first begins to level off, per a known procedure.

[3] = Dispersion stability tests
Method: The dispersion stability tests were performed on the esters (I) to determine the extent each was able to disperse itself in an aqueous medium.
The dispersions were prepared by homogenizing a mixture of the test ester and water, after which repeated examination of the sample was effected for a period of 55 days. This test method is fully indicative of the dispersibility of these esters (I).
The dispersion tests were performed with the esters at 0.5% and 5.0% active levels in water, prepared by combining the test ester with distilled water, and homogenizing the mixture for one to three minutes, via a Kika-Werk Ultra-Turrax S D-45 homogenizer. The dispersions were poured into an eight ounce flint jar, capped, and periodically examined over a 55 day period.

[4] = Physical properties of methylolated MHEDMH esters (I): viscosity; conditions: at 25° C.
[5] = HLB determination (weighted average method)
Text: Hydrophilic-Lipophilic Balance or HLB is a means of associating the hydrophilic and lipophilic characteristics between two surfactants. A "weighted average" method was used to determine the HLB of the esters (I), and by comparison of the precursor ester (Ia), in which two emulsifiers of known HLB values along with the test ester were incorporated in a mixture of mineral oil and water. Evaluation and HLB determination of each of a series of prepared emulsion samples were effected by visual inspection.
The HLB of the mixture "m" is calculated from the sum of the HLB contributions of each surfactant, "a", "b", "c", per Equation 2 which describes a system of oil, water, and three surfactants.
Given that [HLB]m, [HLB]a, and [HLB]b, are known, and the ideal amount of "a", "b", and "c" to prepare a perfect emulsion has been determined, then by rearrangement of Eq. 2, the HLB of "c" can be calculated by Equation 3.
To obtain the HLB of the test ester as surfactant "c", a series of formulations was prepared in which the known surfactant sorbitan monostearate (SMS) as "a" and the known surfactant POE 20 sorbitan monostearate (POE 20 SMS) as "b" were varied in amount (wt. %) relative to each other at a constant amount (1 wt. %) of "c", until an optimum emulsion was obtained. Different combinations of "a" and "b" were used to vary the HLB of "c", for emulsifying a 40:56 (wt. %) mixture of paraffin oil and distilled water (totaling 96 wt. %).
To prepare the emulsions, surfactants "a", "b", and "c", and the paraffin oil were combined in a 150 ml beaker and heated slowly with agitation to 70°-80° C. The value of "X" in each formulation was predetermined by rearranging Eq. 3 to solve for X, and then inserting into the equation various [HLB]c values for the test ester (i.e., 2, 3, 4, 5, 6 . . . ). The [HLB]c values chosen reflected a range that would likely contain the actual HLB of the test ester. Hot distilled water (70°-80° C.) was then slowly added with agitation. The total weight of all these reagents was 100 grams. The resulting emulsion was allowed to cool, with continued agitation, until the temperature dropped below 30° C.
A series of emulsions for each test was prepared, one at a time, and then examined as a set. Each sample within the series was evaluated and graded according to the quality of the emulsion by visual examination of droplet size.

[6] = Solubilities of esters in typical solvents / appearance of samples in water; conditions: for Solubility in isopropyl alcohol / Solubility in mineral oil / solubility: 25° C.; for solubility: water
[7] = Total available formaldehyde (TF) and free formaldehyde (FF) levels of esters (I); conditions: for Calculated TF / Determined FF / Ratio FF/TF: 1% active concentration in water; for FF (free formaldehyde) / TF (total available formaldehyde): neat ester, Table 3; for FF/TF ratio: water
Text: Thus, whether the formaldehyde content is chemically bonded to the hydantoin moiety or is free formaldehyde (FF) in solution, e.g., in water as formaldehyde or methylene glycol [CH2 (OH)2 ], it remains available for biocidal action. Due to this direct relation, the weight percent TF in a given preparation of the ester (I), e.g. a cosmetic formulation, can be predicted accurately, regardless of the level of dilution.

[8] = grams, legend per 100 g Solvent

| Compound | emulsion quality, decreasing order of rank [1] | Classification of Emulsion ([1]; 2 Hours after preparation) | ΔG°cmc (Gibbs' Free Energy of Micellation) [2] [kcal/mol] | cmc (critical micelle concentration) [2] | dispersion quality, decreasing order of rank [3] | Classification of Dispersion ([3]; 0.5% active in water, 3 Days) | Classification of Dispersion ([3]; 0.5% active in water, 13 Days) | Classification of Dispersion ([3]; 0.5% active in water, 55 Days) | Classification of Dispersion ([3]; 5.0% active in water, 3 Days) | Classification of Dispersion ([3]; 5.0% active in water, 13 Days) | Classification of Dispersion ([3]; 5.0% active in water, 55 Days) | Viscosity [4] | Average HLB [5] | HLB Range [5] | Solubility in isopropyl alcohol [6] | Calculated TF [7] [Wt. %] | Determined FF [7] [Wt. %] | Ratio FF/TF [7] | FF (free formaldehyde) [7] [Wt. %] | TF (total available formaldehyde) [7] [Wt. %] | further results |
| --- | --- | --- | --- | --- | --- | --- | --- | --- | --- | --- | --- | --- | --- | --- | --- | --- | --- | --- | --- | --- | --- |
| CC(=O)OCCN1C(=O)N(CO)C(=O)C1(C)C [Acetic Methylolated Ester, 2-(3-hydroxymethyl-5,5-dimethyl-1,3-diazacyclopentane-2,4-dion-1-yl)-ethylester of acetic acid] | cocoate, laurate>oleate,isostearate>stearate>C8/10 ester>acetate | 2-Phase | -3.896 | 7.24 × 10^-3 mol dm^-3 | isostearate>oleate>cocoate>laurate>C8/10ester>>stearate>acetate | Dissolved | Dissolved | Dissolved | Dissolved | Dissolved | Dissolved | 4,384 cts | 19.0 | 19-20 | S (>10 g/100 g Solvent) | 0.123 | 0.0199 | 0.162 | 0.6 | 12.3 | ability to stabilize emulsions [1]: generally unable to stabilize an emulsion for more than two hours; Classification of Emulsion ([1]; 7 Days after preparation): 2-Phase; Classification of Emulsion ([1]; 22 Days after preparation): 2-Phase; Classification of Emulsion ([1]; 55 Days after preparation): 2-Phase; Classification of Dispersion ([3]; 0.5% active in water, 2 Hours): Dissolved; Classification of Dispersion ([3]; 5.0% active in water, 2 Hours): Dissolved; Average HLB ([5]; listed as acetate (I)): 19; Solubility in mineral oil [6, 8]: 3 g; solubility [6]: > 100 mg/mL; FF/TF ratio ([7]; concentration 0.1%): 0.25; FF/TF ratio ([7]; concentration 1%): 0.20; FF/TF ratio ([7]; concentration levels >5%): about 0.15% |
| CCCCCCCCCCCCCCCCCC(=O)OCCN1C(=O)N(CO)C(=O)C1(C)C [Stearic Methylolated Ester, 2-(3-hydroxymethyl-5,5-dimethyl-1,3-diazacyclopentane-2,4-dion-1-yl)-ethylester of stearic acid] | cocoate, laurate>oleate,isostearate>stearate>C8/10 ester>acetate | Good/OK | -5.277 | 7.0 × 10^-3 mol dm^-3 | isostearate>oleate>cocoate>laurate>C8/10ester>>stearate>acetate | 2-Phase | 2-Phase | 2-Phase | 2-Phase | 2-Phase | 2-Phase | – | 7.0 | 6-8 | S (>10 g/100 g Solvent) | 0.064 | 0.0066 | 0.103 | 0.2 | 6.4 | Average HLB ([5]; listed as stearate (I)): 7; water solubility relative to the other esters [6]: far less soluble in water than the other such esters; Solubility in mineral oil [6]: S (>10 g/100 g Solvent); solubility [6, 8]: < 10 mg/mL |
| 2-(3-hydroxymethyl-5,5-dimethyl-1,3-diazacyclopentane-2,4-dion-1-yl)-ethylester of isostearic acid [Isostearic Methylolated Ester] | cocoate, laurate>oleate,isostearate>stearate>C8/10 ester>acetate | – | -7.13 | 3.0 × 10^-4 mol dm^-3 | isostearate>oleate>cocoate>laurate>C8/10ester>>stearate>acetate | – | – | – | – | – | – | 957 cts | 15.0 | 14-16 | – | 0.062 | 0.0082 | – | 0.2 | 6.2 | surface active properties [2]: particularly favorable surface active properties |
